Results from patent US20100267561A1, “HERBICIDAL PYRIDAZINONE DERIVATIVES” (priority 2007, published 2010).

What was measured:
Type in all cases: in vivo
[1] = tested on: black mustard (Brassica nigra); experiment: Test E pre-/postemergence plant response; details: scale 0 to 100
Outline: (§1)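 Formulated in a non-phytotoxic solvent mixture containing surfactant, compound was applied to soil at planting or sprayed on emerged plants at the 1- to 4-leaf stage. Visual comparison with controls followed 14 to 21 days in the greenhouse; 0 = no effect, 100 = complete control.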

[2] = tested on: tropical (T.) spiderwort (Commelina benghalensis); experiment: Test E pre-/postemergence plant response; details: scale 0 to 100
Outline: as §1

canola (Brassica rapa) = experiment: Test C pre-/postemergence plant response
Outline: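 Pre- and postemergence treatment, visual 0–100 rating vs controls at 15–25 days.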

[3] = tested on: Russian thistle (Salsola kali); experiment: Test E pre-/postemergence plant response; details: 31 g ai/ha, Preemergence, scale 0 to 100
Outline: as §1

[4] = tested on: Virginia (V.) dayflower (Commelina virginica); experiment: Test E pre-/postemergence plant response; details: scale 0 to 100
Outline: as §1

[5] = tested on: common sowthistle (Sonchus oleraceous); experiment: Test E pre-/postemergence plant response; details: Postemergence, scale 0 to 100
Outline: as §1

kochia (Kochia scoparia) = experiment: Test E pre-/postemergence plant response; details: scale 0 to 100
Outline: as §1

[6] = tested on: prickly sida (Sida spinosa); experiment: Test E pre-/postemergence plant response; details: scale 0 to 100
Outline: as §1

[7] = Preemergence, 8 g ai/ha, scale 0 to 100 (0 no effect, 100 complete control)
[8] = Preemergence, 16 g ai/ha, scale 0 to 100 (0 no effect, 100 complete control)
[9] = Preemergence, 31 g ai/ha, scale 0 to 100 (0 no effect, 100 complete control)
[10] = Preemergence, 62 g ai/ha, scale 0 to 100, 0 no effect, 100 complete control

CCc1cc(-c2ccc(Cl)cc2)nn1-c1c(OC(=O)C(C)(C)C)cnn(C)c1=O [Compound 40]
0: Plant response rating, Mustard, Black ([1]; 8 g ai/ha, Preemergence) | Plant response rating, Mustard, Black ([1]; 16 g ai/ha, Preemergence) | Plant response rating, Mustard, Black ([1]; 31 g ai/ha, Preemergence) | Plant response rating, Mustard, Black ([1]; 62 g ai/ha, Preemergence) | Plant response rating, Mustard, Black ([1]; Postemergence, 8 g ai/ha) | Plant response rating, Mustard, Black ([1]; Postemergence, 16 g ai/ha) | Plant response rating, Mustard, Black ([1]; Postemergence, 31 g ai/ha) | Plant response rating, Mustard, Black ([1]; Postemergence, 62 g ai/ha) | Plant response rating, Spiderwort, T. ([2]; 16 g ai/ha, Preemergence) | Plant response rating, Spiderwort, T. ([2]; 31 g ai/ha, Preemergence) | Plant response rating, Spiderwort, T. ([2]; 62 g ai/ha, Preemergence) | Plant response rating, Spiderwort, T. ([2]; Postemergence, 8 g ai/ha) | Plant response rating, Spiderwort, T. ([2]; Postemergence, 16 g ai/ha) | Plant response rating, Spiderwort, T. ([2]; Postemergence, 31 g ai/ha) | Plant response rating, Spiderwort, T. ([2]; Postemergence, 62 g ai/ha)

CCc1cc(-c2ccc(Cl)cc2)nn1-c1c(OS(C)(=O)=O)cnn(C)c1=O [Compound 39]
0: Plant response rating, Mustard, Black ([1]; 8 g ai/ha, Preemergence) | Plant response rating, Mustard, Black ([1]; 16 g ai/ha, Preemergence) | Plant response rating, Mustard, Black ([1]; 31 g ai/ha, Preemergence) | Plant response rating, Mustard, Black ([1]; 62 g ai/ha, Preemergence) | Plant response rating, Mustard, Black ([1]; Postemergence, 8 g ai/ha) | Plant response rating, Mustard, Black ([1]; Postemergence, 16 g ai/ha) | Plant response rating, Mustard, Black ([1]; Postemergence, 31 g ai/ha) | Plant response rating, Mustard, Black ([1]; Postemergence, 62 g ai/ha) | Plant response rating, Spiderwort, T. ([2]; 16 g ai/ha, Preemergence) | Plant response rating, Spiderwort, T. ([2]; 31 g ai/ha, Preemergence) | Plant response rating, Spiderwort, T. ([2]; 62 g ai/ha, Preemergence) | Plant response rating, Spiderwort, T. ([2]; Postemergence, 8 g ai/ha) | Plant response rating, Spiderwort, T. ([2]; Postemergence, 16 g ai/ha) | Plant response rating, Spiderwort, T. ([2]; Postemergence, 31 g ai/ha) | Plant response rating, Spiderwort, T. ([2]; Postemergence, 62 g ai/ha)

Cn1ncc(O)c(-c2nn(-c3ccc(Cl)cc3)cc2Cl)c1=O [Compound 28]
0: Plant response rating, Canola (canola (Brassica rapa); [7]) | Plant response rating, Canola (canola (Brassica rapa); [8]) | Plant response rating, Canola (canola (Brassica rapa); [9]) | Plant response rating, Canola (canola (Brassica rapa); [10])

Cn1ncc(O)c(-c2nn(-c3ccc(Cl)cc3)cc2Br)c1=O [Compound 31]
0: Plant response rating, Mustard, Black ([1]; 8 g ai/ha, Preemergence) | Plant response rating, Mustard, Black ([1]; 16 g ai/ha, Preemergence) | Plant response rating, Mustard, Black ([1]; 31 g ai/ha, Preemergence) | Plant response rating, Mustard, Black ([1]; 62 g ai/ha, Preemergence) | Plant response rating, Mustard, Black ([1]; Postemergence, 8 g ai/ha) | Plant response rating, Mustard, Black ([1]; Postemergence, 16 g ai/ha) | Plant response rating, Mustard, Black ([1]; Postemergence, 31 g ai/ha) | Plant response rating, Mustard, Black ([1]; Postemergence, 62 g ai/ha) | Plant response rating, Spiderwort, T. ([2]; 16 g ai/ha, Preemergence) | Plant response rating, Spiderwort, T. ([2]; 31 g ai/ha, Preemergence) | Plant response rating, Spiderwort, T. ([2]; 62 g ai/ha, Preemergence) | Plant response rating, Spiderwort, T. ([2]; Postemergence, 8 g ai/ha) | Plant response rating, Spiderwort, T. ([2]; Postemergence, 16 g ai/ha) | Plant response rating, Spiderwort, T. ([2]; Postemergence, 31 g ai/ha) | Plant response rating, Spiderwort, T. ([2]; Postemergence, 62 g ai/ha)

Cc1cc(-c2ccc(Cl)cc2)nn1-c1c(OS(C)(=O)=O)cnn(C)c1=O [Compound 36]
0: Plant response rating, Mustard, Black ([1]; 8 g ai/ha, Preemergence) | Plant response rating, Mustard, Black ([1]; 16 g ai/ha, Preemergence) | Plant response rating, Mustard, Black ([1]; 31 g ai/ha, Preemergence) | Plant response rating, Mustard, Black ([1]; 62 g ai/ha, Preemergence) | Plant response rating, Mustard, Black ([1]; Postemergence, 8 g ai/ha) | Plant response rating, Mustard, Black ([1]; Postemergence, 16 g ai/ha) | Plant response rating, Mustard, Black ([1]; Postemergence, 31 g ai/ha) | Plant response rating, Mustard, Black ([1]; Postemergence, 62 g ai/ha) | Plant response rating, Spiderwort, T. ([2]; 16 g ai/ha, Preemergence) | Plant response rating, Spiderwort, T. ([2]; 31 g ai/ha, Preemergence) | Plant response rating, Spiderwort, T. ([2]; 62 g ai/ha, Preemergence) | Plant response rating, Spiderwort, T. ([2]; Postemergence, 8 g ai/ha) | Plant response rating, Spiderwort, T. ([2]; Postemergence, 16 g ai/ha) | Plant response rating, Spiderwort, T. ([2]; Postemergence, 31 g ai/ha) | Plant response rating, Spiderwort, T. ([2]; Postemergence, 62 g ai/ha)

CCc1cc(-c2ccc(C(F)(F)F)cc2)nn1-c1c(OS(C)(=O)=O)cnn(C)c1=O [Compound 19]
0: Plant response rating, Canola (canola (Brassica rapa); Postemergence, 8 g ai/ha, scale 0 to 100, 0 no effect, 100 complete control) | Plant response rating, Canola (canola (Brassica rapa); Postemergence, 16 g ai/ha, scale 0 to 100, 0 no effect, 100 complete control) | Plant response rating, Canola (canola (Brassica rapa); Postemergence, 31 g ai/ha, scale 0 to 100, 0 no effect, 100 complete control) | Plant response rating, Canola (canola (Brassica rapa); Postemergence, 62 g ai/ha, scale 0 to 100, 0 no effect, 100 complete control) | Plant response rating, Canola (canola (Brassica rapa); [7]) | Plant response rating, Canola (canola (Brassica rapa); [8]) | Plant response rating, Canola (canola (Brassica rapa); [9]) | Plant response rating, Canola (canola (Brassica rapa); [10]) | Plant response rating, Thistle, Russian [3] | Plant response rating, Dayflower, V. ([4]; 4 g ai/ha, Postemergence) | Plant response rating, Dayflower, V. ([4]; 8 g ai/ha, Preemergence) | Plant response rating, Dayflower, V. ([4]; 16 g ai/ha, Preemergence) | Plant response rating, Dayflower, V. ([4]; Postemergence, 8 g ai/ha) | Plant response rating, Dayflower, V. ([4]; Postemergence, 16 g ai/ha) | Plant response rating, Dayflower, V. ([4]; Postemergence, 31 g ai/ha) | Plant response rating, Dayflower, V. ([4]; Preemergence, 4 g ai/ha) | Plant response rating, Mustard, Black ([1]; 4 g ai/ha, Postemergence) | Plant response rating, Mustard, Black ([1]; 8 g ai/ha, Preemergence) | Plant response rating, Mustard, Black ([1]; 16 g ai/ha, Preemergence) | Plant response rating, Mustard, Black ([1]; 31 g ai/ha, Preemergence) | Plant response rating, Mustard, Black ([1]; Postemergence, 8 g ai/ha) | Plant response rating, Mustard, Black ([1]; Postemergence, 16 g ai/ha) | Plant response rating, Mustard, Black ([1]; Postemergence, 31 g ai/ha) | Plant response rating, Mustard, Black ([1]; Preemergence, 4 g ai/ha) | Plant response rating, Sowthistle ([5]; 4 g ai/ha) | Plant response rating, Sowthistle ([5]; 8 g ai/ha) | Plant response rating, Sowthistle ([5]; 16 g ai/ha) | Plant response rating, Sowthistle ([5]; 31 g ai/ha) | Plant response rating, Kochia (kochia (Kochia scoparia); 4 g ai/ha, Postemergence) | Plant response rating, Kochia (kochia (Kochia scoparia); 16 g ai/ha, Preemergence) | Plant response rating, Kochia (kochia (Kochia scoparia); 31 g ai/ha, Preemergence) | Plant response rating, Kochia (kochia (Kochia scoparia); Postemergence, 16 g ai/ha) | Plant response rating, Kochia (kochia (Kochia scoparia); Preemergence, 4 g ai/ha) | Plant response rating, Prickly Sida ([6]; 4 g ai/ha, Postemergence) | Plant response rating, Prickly Sida ([6]; 16 g ai/ha, Preemergence) | Plant response rating, Prickly Sida ([6]; 31 g ai/ha, Preemergence) | Plant response rating, Prickly Sida ([6]; Postemergence, 8 g ai/ha) | Plant response rating, Prickly Sida ([6]; Postemergence, 16 g ai/ha) | Plant response rating, Prickly Sida ([6]; Postemergence, 31 g ai/ha) | Plant response rating, Prickly Sida ([6]; Preemergence, 4 g ai/ha)
